Entries after “also recorded” stand apart in the source; their conditions may differ. Where two headings read alike, the source gives them in different places.
Legend:
[1] = system: HIV-1 (IIIB isolate); experiment: HIV-1 inhibition (p24 antigen ELISA) in infected H9 lymphocytes; type: cell-based; conditions: for Therapeutic Index (TI = IC50/EC50): H9 cells, average of at least two experiments; for anti-HIV activity, result in words / TI, result in words: H-9 lymphocytes; for anti-HIV activity, result in words: EC50 compared with related compounds; for EC50: Human immunodeficiency virus 1, IIIB, Lymphocyte, 96 h, read-out: Anti-HIV Activity EC50; for TI, result in words: compared with related compounds
Procedure: (§1) Aliquot of this cell line were only used in experiments when in log-phase growth. Test samples were first dissolved in dimethyl sulfoxide. The following final drug concentrations were routinely used for screening: 100, 20, 4 and 0.8 μg/ml. For active agents, additional dilutions were prepared for subsequent testing so that an accurate EC50 value (defined below) could be achieved. […] The appropriate amount of virus for a multiplicity of infection (moi) between 0.1 and 0.01 Infectious Units/cell was added to the first aliquot of H9 cells. The other aliquot only received culture medium, and these mock-infected cells were used for toxicity determinations (IC50, defined below). After a 4 h incubation at 37° C. and 5% CO2, both cell populations were washed three times with fresh medium and then added to the appropriate wells of a 24 well-plate containing the various concentrations of the test drug or culture medium (positive infected control/negative drug control). In addition, AZT was also assayed during each experiment as a positive drug control. The plates were incubated at 37° C. and 5% CO2 for 4 days. Cell-free supernatants were collected on Day 4 for use in a p24 antigen ELISA assay. P24 antigen is a core protein of HIV and therefore is an indirect measure of virus present in the supernatants. Toxicity was determined by performing cell counts by a Coulter Counter on the mock-infected H9 cells which had either received culture medium (no toxicity), test sample, or AZT.
Compounds of the present invention were assayed for anti-HIV activity according to the following assay procedures. […] The cell lines were used in experiments only when in the logarithmic phase of growth, whereas uninfected peripheral blood mononuclear cells (PBMCs) were first stimulated with PHA (1 μg/mL) for three days. […] The cell lines and PBMCs were washed thoroughly to remove unadsorbed virions and resuspended at 4×10^5 cells/ml in complete medium or complete medium with 10% v/v interleukin 2 (IL-2) , respectively. One ml. aliquots were placed into wells of 24-well culture plates containing an equal volume of test compounds (diluted in the appropriate culture medium). The toxicity of each compound was assessed by determining the number of compound-exposed uninfected cells that remained after four days at 37° C. and 5% CO2. A p24 antigen ELISA assay was used to determine the level of virus released in the medium of the HIV-infected cultures. The p24 antigen assay used a HIV-1 anti-p24 specific monoclonal antibody as the capture antibody coated onto 96-well plates. […] P24 in the culture medium was quantitated against a standard curve containing known amounts of p24. The effective (EC50) and inhibitory (IC50) concentrations for anti-HIV activity and cytotoxicity, respectively, were determined.

[2] = Cytotoxicity: cell counts of mock-infected H9 cells; type: cell-based; conditions: human
Procedure: as §1, with “The biological evaluation of HIV-1 inhibition was carried out according to established protocols, (Kashiwada, Y., et al., J Med Chem. 39:1016-1017 (1996); Hashimoto, F., et al., Bioorg. & Med Chem. 5:2133-2143 (1997)). The T cell line, H9, was maintained in continuous culture with complete medium (RPMI 1640 with 10% fetal calf serum supplemented with L-glutamine at 5% CO2 and 37° C.). Aliquot” for “Aliquot”, “achieved. As the test samples were being prepared, an aliquot of the H9 cell line was infected with HIV-1 (IIIB isolate) while another aliquot was mock-infected with complete medium.” for “achieved.”
Compounds of the present invention were assayed for anti-HIV activity according to the following assay procedures. The T cell line, H9, and the promonocytic cell line, U937, were maintained separately in continuous culture with complete medium (RPMI 1640 with 10% fetal calf serum) at 5% CO2 and 37° C. The cell lines were used in experiments only when in the logarithmic phase of growth, whereas uninfected peripheral blood mononuclear cells (PBMCs) were first stimulated with PHA (1 μg/mL) for three days. All cell targets were incubated with HIV-1 (IIIB isolate, TCID50 10^4 IU/ml, at a multiplicity of infection of […] IU/cell) for one hour at 37° C. and 5% CO2. The cell lines and PBMCs were washed thoroughly to remove unadsorbed virions and resuspended at 4×10^5 cells/ml in complete medium or complete medium with 10% v/v interleukin 2 (IL-2) , respectively. One ml. aliquots were placed into wells of 24-well culture plates containing an equal volume of test compounds (diluted in the appropriate culture medium). The toxicity of each compound was assessed by determining the number of compound-exposed uninfected cells that remained after four days at 37° C. and 5% CO2. A p24 antigen ELISA assay was used to determine the level of virus released in the medium of the HIV-infected cultures. The p24 antigen assay used a HIV-1 anti-p24 specific monoclonal antibody as the capture antibody coated onto 96-well plates. Following a sample incubation period, rabbit serum containing antibodies for HIV-1 p24 was used to tag any p24 captured onto the microtiterwell surface. Peroxidase conjugated goat anti-rabbit serum was then used to tag HIV-1 p24 specific rabbit antibodies that had complexed with captured p24. […] The cutoff for the p24 ELISA assay was 12.5 pg/ml. P24 in the culture medium was quantitated against a standard curve containing known amounts of p24. […]

[3] = toxic to 50% of mock-infected H9 cells, 4 days, average of at least two experiments, read-out: Cytotoxicity IC50

Structure (SMILES) | Therapeutic Index (TI = IC50/EC50) [1] | anti-HIV activity, result in words [1] | EC50 [1] [µM] | CC50 at 96 h [2, 3] [µM] | fold more potent than compound 3 ([1]; compared with compound 3 (betulin)) [fold] | CC50 at 96 h ([2]; h9 cells) [µM] | TI, result in words [1] | fold more potent than compound 2 ([1]; compared with compound 2) | fold drop in TI on saturation of C20-C29 double bond ([1]; compared with compound 4) [fold] | fold drop in activity on saturation of C20-C29 double bond ([1]; compared with compound 4) [fold]
C=C(C)[C@@H]1CC[C@]2(CO)CC[C@]3(C)[C@H](CC[C@@H]4[C@@]5(C)CC[C@H](O)C(C)(C)[C@@H]5CC[C@]43C)[C@@H]12 [Compound 3, betulin] | 1.9 | less potent than betulinic acid (1) | 23 | 43.7 |  |  |  |  |  | 
C=C(C)[C@@H]1CC[C@]2(COC(=O)CC(C)(C)CC(=O)O)CC[C@]3(C)[C@H](CC[C@@H]4[C@@]5(C)CC[C@H](O)C(C)(C)[C@@H]5CC[C@]43C)[C@@H]12 [Compound 11, 28-O-(3',3'-Dimethylglutaryl)-betulin] | 7.8 | much less potent than 4 | 3.6 |  | 6 | 28.2 |  |  |  | 
C=C(C)[C@@H]1CC[C@]2(COC(=O)CC(C)(C)CC(=O)O)CC[C@]3(C)[C@H](CC[C@@H]4[C@@]5(C)CC[C@H](OC(=O)CC(C)(C)CC(=O)O)C(C)(C)[C@@H]5CC[C@]43C)[C@@H]12 [Compound 4, 3,28-Di-O-(3',3'-dimethylglutaryl)-betulin] | 21,515 | significantly enhanced activity; also recorded: remarkable anti-HIV activity even greater than that of the betulinic acid derivative 2 | 0.00066 |  |  | 14.2 | remarkably high therapeutic index (TI); also recorded: higher TI than compound 2 | about 3 fold |  | 
Cc1cn([C@H]2C[C@H](N=[N+]=[N-])[C@@H](CO)O2)c(=O)[nH]c1=O [AZT, reference compound] |  |  |  | 500 |  |  |  |  |  | 
C=C(C)[C@@H]1CC[C@]2(COC(=O)CC(C)(C)CC(=O)O)CC[C@]3(C)[C@H](CC[C@@H]4[C@@]5(C)CCC(=O)C(C)(C)[C@@H]5CC[C@]43C)[C@@H]12 [Compound 12, 3-Deoxy-3-oxo-28-O-(3',3'-dimethylglutaryl)-betulin] | 2.9 | decreased activity further | 10 |  |  | 29.2 |  |  |  | 
CC(C)[C@@H]1CC[C@]2(COC(=O)CC3(CC(=O)O)CCCC3)CC[C@]3(C)[C@H](CC[C@@H]4[C@@]5(C)CC[C@H](OC(=O)CC6(CC(=O)O)CCCC6)C(C)(C)[C@@H]5CC[C@]43C)[C@@H]12 [Compound 10, 3,28-Di-O-(3',3'-tetramethyleneglutaryl)-dihydrobetulin] | 37 | less inhibition than the unsaturated 5 and 6; also recorded: least activity | 0.58 |  |  | 21.6 | lowest TI values |  |  | 
CCC(C)(CC(=O)O)CC(=O)OC[C@]12CC[C@@H](C(C)C)[C@@H]1[C@H]1CC[C@@H]3[C@@]4(C)CC[C@H](OC(=O)CC(C)(CC)CC(=O)O)C(C)(C)[C@@H]4CC[C@@]3(C)[C@]1(C)CC2 (stereo partly shown) [Compound 9, 3,28-Di-O-(3',3'-methylethylglutaryl)-dihydrobetulin] | 248 | less inhibition than the unsaturated 5 and 6 | 0.075 |  |  | 18.7 |  |  |  | 
C=C(C)[C@@H]1CC[C@]2(COC(=O)CC(C)(CC)CC(=O)O)CC[C@]3(C)[C@H](CC[C@@H]4[C@@]5(C)CC[C@H](OC(=O)CC(C)(CC)CC(=O)O)C(C)(C)[C@@H]5CC[C@]43C)[C@@H]12 (stereo partly shown) [Compound 5, 3,28-Di-O-(3',3'-methylethylglutaryl)-betulin] | 3,476 | in the nanomolar range; also recorded: less active compared with compound 4 | 0.0053 |  |  | 18.4 |  |  |  | 
C=C(C)[C@@H]1CC[C@]2(COC(=O)CC(C)(C)CC(=O)O)CC[C@]3(C)[C@H](CC[C@@H]4[C@@]5(C)CC=CC(C)(C)[C@@H]5CC[C@]43C)[C@@H]12 [Compound 14] | 5.2 | increased anti-HIV activity | 5.4 |  |  | 28.3 |  |  |  | 
C=C(C)[C@@H]1CC[C@]2(C(=O)O)CC[C@]3(C)[C@H](CC[C@@H]4[C@@]5(C)CC[C@H](OC(=O)CC(C)(C)CC(=O)O)C(C)(C)[C@@H]5CC[C@]43C)[C@@H]12 [Compound 2, reference compound] |  |  | 0.0023 |  |  | 4.5 |  |  |  | 
C=C(C)[C@@H]1CC[C@]2(COC(=O)CC3(CC(=O)O)CCCC3)CC[C@]3(C)[C@H](CC[C@@H]4[C@@]5(C)CC[C@H](OC(=O)CC6(CC(=O)O)CCCC6)C(C)(C)[C@@H]5CC[C@]43C)[C@@H]12 [Compound 6, 3,28-Di-O-(3',3'-tetramethyleneglutaryl)-betulin] | 267 | in the nanomolar range; also recorded: less active compared with compound 4; also recorded: least activity | 0.077 |  |  | 20.5 | lowest TI values |  |  | 
CC(C)[C@@H]1CC[C@]2(COC(=O)CC(C)(C)CC(=O)O)CC[C@]3(C)[C@H](CC[C@@H]4[C@@]5(C)CC[C@H](OC(=O)CC(C)(C)CC(=O)O)C(C)(C)[C@@H]5CC[C@]43C)[C@@H]12 [Compound 8, 3,28-Di-O-(3',3'-dimethyglutaryl)-dihydrobetulin] | 2,253 |  | 0.0047 |  |  | 10.6 |  |  | ~9 | ~7
